# Columns and labels:
# Assay type in all cases: cell-based
# GiPCR signaling = test: CDS integrated response to GiPCR ligands in MC3T3-E1 osteoblastic cell line; details: MC3T3-E1 cells treated with rOPN prior to stimulation
# Procedure: The functional evaluation of Gi, Gs and Gq proteins was assessed by CDS assays using osteoblasts cells derived from C57Bl/6j WT and C57Bl/6j OPN^−/− mice (bipedal and quadrupedal) using CellKey™ apparatus, as previously described (Akoume et al., 2010, and WO 2010/040234 to Moreau et al.).
# MC3T3-E1 cells were used to check the effect of the knockdown of OPN and its receptors. MC3T3-E1 osteoblasts cells were transiently transfected in serum-free medium, using Lipofectamine™ RNAiMAX reagent (Invitrogen) according to the manufacturer's instructions and functional experiments were performed 48 h post transfection. The sequence of RNA oligonucleotides used for the knockdown of different genes are, ssp1 (encodes OPN) (CCACAGCCACAAGCAGUCCAGAUUA (SEQ ID NO: 9)), integrin β1 (CCUAAGUCAGCAGUAGGAACAUUAU (SEQ ID NO: 10)), integrin β3 (CCUCCAGCUCAUUGUUGAUGCUUAU (SEQ ID NO: 11)), integrin α5 (CCGAGUACCUGAUCAACCUGGUUCA (SEQ ID NO: 12)), integrin α8 (GAGAUGAAACUGAAUUCCGAGAUAA (SEQ ID NO: 13)), integrin αv (GACUGUUGAGUAUGCUCCAUGUAGA (SEQ ID NO: 14 and CD44 (GAACAAGGAGUCGUCAGAAACUCCA (SEQ ID NO: 15)). Two other siRNAs against integrin α5 were tested (UCCACCAUGUCUAUGAGCUCAUCAA (SEQ ID NO:16) and UCAGGAGCAGAUUGCAGAAUCUUAU (SEQ ID NO:17)).
# To further investigate the role of OPN in Gi protein-mediated receptor signaling, several lines of experiments were performed using MC3T3-E1 osteoblastic cell line. Since these cells express OPN, was first examined whether depletion of OPN by siRNA influences the capacity of GiPCR ligands to induce cell signaling as measured by CDS in MC3T3-E1 cells. […] Similar results were obtained when cells were stimulated with oxymethazolin. […] To confirm this hypothesis, cells were treated with exogenous recombinant OPN (rOPN) prior to DAMGO and oxymethazolin stimulation.
# [1] = tested on: Gi proteins with MO, MT2 or β1 integrin receptors; test: Immunoprecipitation/Western blot: interaction of Gi proteins with GPCR and β1 integrin in MC3T3-E1 cells
# Procedure: MC3T3-E1 cells were treated with PBS or rOPN (0.5 μg/ml) then the whole cell proteins (1 mg) were incubated with anti-MOR (Abcam Toronto, ON, Canada), anti-MT2 or anti-[…] (Santa Cruz Biotechnology), plus protein G beads for immunoprecipitation (IP) at 4° C. overnight. Purified proteins were loaded on 10% gel after IP, then, processed for gel transferring to PVDF membrane and 5% BSA blocking. Membranes were exposed to antibodies specific for Gi1, Gi2, Gi3, MOR, MT2 and β1 integrin at 4° C. overnight and, subsequently, treated with secondary antibody at room temperature for 1 h. Bands were visualized using SuperSignal™ chemiluminescent (Pierce, Rockford, Ill.) and quantified by densitometric scanning.
# It is notable that when different receptors signal through the same subfamily of G proteins, they share the same limited pool of G proteins. Therefore, if OPN enhances the recruitment of Gi proteins in the β1 integrin complex, reduction in the amount of Gi proteins in GiPCR complex would be expected. To evaluate this possibility, cells lysates were immunoprecipitated with antibodies against MO, MT2 or β1 integrin receptors, and the presence of Gi proteins in each precipitate was examined by Western blot using antibodies specific for Gi1, Gi2 or Gi3 isoform. […]
# Gi1, Gi2, Gi3 proteins = test: Immunoprecipitation/Western blot: phosphorylation of Gi proteins in MC3T3-E1 cells; details: rOPN vs PBS
# Procedure: Given that the defective GiPCR signaling associated with idiopathic scoliosis has causatively been related to increased phosphorylation of Gi proteins (Moreau et al., 2004), it was of interest to examined whether OPN influences the phosphorylation status of Gi proteins. Accordingly, MC3T3-E1 cells were treated with rOPN, then cell lysates were immunoprecipitated with antibodies against Gi1, Gi2 or Gi3 protein isoforms, and the phosphorylation level was examined by Western blot using anti-phospho serine/threonine or anti-tyrosine antibodies. […] However, band density was higher in OPN-treated cells.
# To support the involvement of α5β1 integrin in this process, cells were pre-treated with antibody against α5β1 integrin prior to rOPN treatment.
# Cell extracts prepared from MC3T3-E1 that had been treated with rOPN in the presence or absence of an inhibitor specific for each kinase were subjected to immunoprecipitation and Western blot analysis. […] However, both serine and tyrosine phosphorylation were attenuated by inhibitors of FAK (FAK inhibitor-14), Scr (PP2), CaMKII (KN93), PI3K (wortmannin-data not shown), MEK (PD98059), ERK1/2 (FR180204), JNK (SP60125) and P38 (SB203580).
# GsPCR signaling = test: CDS response to GsPCR stimulation (isoproterenol, desmopressin) in MC3T3-E1 cells
# Excerpt: (§1) Taken into account these considerations and having observed that genetic deletion of OPN inversely influenced response to Gi and Gs stimulation (FIG. 1), it was of interest to examine the effect of OPN on the functional and phosphorylation status of Gs protein and on its interaction with receptors. For this purpose, cells were subjected to isoproterenol and desmopressin in the presence of rOPN or PBS. As expected, response to isoproterenol was higher in rOPN than in PBS-treated cells.
# Assuming that inhibition of Gi protein and phosphorylation of Gs protein are responsible for the increased GsPCR signaling associated with rOPN, the next experiments aimed to determine the contribution of each parameter. For this purpose, cells were treated with PTX to mimic disruption action of rOPN and compared to cells treated with rOPN alone or in combination with Src inhibitor (PP2) to prevent tyrosine phosphorylation. […] This modest difference was abolished by Src inhibitor (PP2). Similar observations were noted when cells were stimulated with desmopressin.
# Gs protein = test: Immunoprecipitation/Western blot: Gs protein tyrosine phosphorylation and association with receptors in MC3T3-E1 cells
# Excerpt: as §1
# [2] = rOPN-treated vs PBS-treated cells
substance,measurement,setting,value
rOPN: exogenous recombinant osteopontin (R&D systems),integrated response to DAMGO and oxymethazolin after rOPN treatment,GiPCR signaling,decrease in the integrated response in a concentration-dependent manner
same,amount of Gi protein isoforms in the β1 integrin precipitates,[1]; following rOPN treatment,elevated
same,relative amount of Gi isoforms immunoprecipitated with MO or MT2 receptor,[1]; [2],reduced
same,phosphorylated serine and tyrosine residues in Gi precipitates (band density),"Gi1, Gi2, Gi3 proteins",higher
same,response to isoproterenol (similar with desmopressin),GsPCR signaling; rOPN vs PBS-treated cells,higher
same,greater responsiveness to isoproterenol stimulation than PTX-treated cells,GsPCR signaling; rOPN-treated vs PTX-treated cells,30%
same,presence of Gs proteins in the immunoprecipitates of MT2 and MO receptors,Gs protein; rOPN treatment,enhances
same,Gs protein immunoprecipitates probed with anti-tyrosine antibody,Gs protein; [2],higher intensity
